{"source": "patent EP0064820A1", "about": "“Substituted imidazole and imidazoline derivatives and their preparation and use” (Farmos-Yhtyma Oy, priority 1981, dated 1982)", "key": {"[1]": {"assay": "acute toxicity in mice, i.v.", "details": "mouse, in vivo, iv", "procedure": "Acute toxicity was determined by using female mice of NMRI-Strain with an age of about 7 months and weighing 30-40 g. The administration of the test compound was i.v."}, "thrombocytes from a cow": {"system": "thrombocytes from a cow", "assay": "antithrombotic activity in vitro: inhibition of ADP- and collagen-induced aggregation of thrombocytes, turbidimetric", "format": "cell-based", "details": "cow plasma; for inhibition of ADP-induced aggregation of thrombocytes: ADP added after 10 min incubation; for inhibition of collagen-induced aggregation of thrombocytes: collagen added after 10 min incubation", "procedure": "The antithrombotic activity was investigated in vitro. The inhibiting activity of the compounds against ADP- and collagen-induced aggregation of thrombocytes was measured. In the test thrombocytes from a cow were used. To 1.2 ml of plasma containing 250000 thrombocytes/mm^3 were added 50 µl of a solution of the compound to be tested. After 10 min incubation either ADP or collagen was added. The aggregation of the thrombocytes was turbidimetrically determined at X = 605 nm."}, "Sprague-Dawley rats [2]": {"system": "Sprague-Dawley rats", "assay": "anti-hypertensive test in urethane-anesthetized rats, blood pressure and pulse frequency recorded after injection", "format": "in vivo", "procedure": "The anti-hypertensive properties of the imidazole derivatives of the present invention have been determined according to the following procedure. Sprague-Dawley rats of normal weight were first anesthetized with urethane. After this, the femoral artery was connected by way of a polyethylene tube with a blood pressure transducer. The test substance was then injected into the femoral vein and the blood pressure and the pulse frequency were registered with a recorder."}, "Sprague-Dawley rats [3]": {"system": "Sprague-Dawley rats", "assay": "anti-hypertensive test in urethane-anesthetized rats, blood pressure and pulse frequency recorded after injection", "format": "in vivo", "details": "i.c.v. dosage compared with i.v."}, "[4]": {"details": "dose of the maximum not stated, within the active dose range"}}}
{"molecule": "Cc1cccc(C)c1CCC(O)c1nccn1Cc1ccccc1", "note": "(centres unmarked) [1-Benzyl-2-[3-(2,6-dimethylphenyl)-1-hydroxypropyl]-imidazole]", "values": [{"measurement": "LD50", "setting": "[1]", "value": 65, "unit": "mg/kg"}, {"measurement": "inhibition of ADP-induced aggregation of thrombocytes", "setting": "thrombocytes from a cow", "value": "effectively"}, {"measurement": "inhibition of collagen-induced aggregation of thrombocytes", "setting": "thrombocytes from a cow", "value": "effectively"}]}
{"molecule": "Cc1ccccc1Cc1nc(C)c(C)[nH]1", "note": "[2-(2-methylbenzyl)-4,5-dimethyl-imidazole]", "values": [{"measurement": "LD50", "setting": "[1]", "value": 30, "unit": "mg/kg"}, {"measurement": "inhibition of ADP-induced aggregation of thrombocytes", "setting": "thrombocytes from a cow", "value": "effectively"}, {"measurement": "inhibition of collagen-induced aggregation of thrombocytes", "setting": "thrombocytes from a cow", "value": "effectively"}]}
{"molecule": "Cc1c[nH]c(CCc2cccc(C)c2C)n1", "note": "[2-[2-(2,3-dimethylphenyl)-ethyl]-4-methyl-imidazole]", "values": [{"measurement": "LD50", "setting": "[1]", "value": 35, "unit": "mg/kg"}, {"measurement": "maximal decrease of the blood pressure", "setting": "Sprague-Dawley rats [2]; [4]", "value": 32, "unit": "%"}, {"measurement": "inhibition of ADP-induced aggregation of thrombocytes", "setting": "thrombocytes from a cow", "value": "effectively"}, {"measurement": "inhibition of collagen-induced aggregation of thrombocytes", "setting": "thrombocytes from a cow", "value": "effectively"}]}
{"molecule": "Cc1cccc(CCC2=NCCN2)c1C", "note": "[2-[2-(2,3-dimethylphenyl)-ethyl]-imidazoline]", "values": [{"measurement": "LD50", "setting": "[1]", "value": 30, "unit": "mg/kg"}, {"measurement": "maximal decrease of the blood pressure", "setting": "Sprague-Dawley rats [2]; [4]", "value": 26, "unit": "%"}]}
{"molecule": "Cc1ccc(C)c(CC(O)c2ncc[nH]2)c1", "note": "(centres unmarked) [2-[2-(2,5-dimethylphenyl)-1-hydroxyethyl]-imidazole]", "values": [{"measurement": "LD50", "setting": "[1]", "value": 45, "unit": "mg/kg"}, {"measurement": "inhibition of ADP-induced aggregation of thrombocytes", "setting": "thrombocytes from a cow", "value": "effectively"}, {"measurement": "inhibition of collagen-induced aggregation of thrombocytes", "setting": "thrombocytes from a cow", "value": "effectively"}]}
{"molecule": "Cc1ccc(C)c(CCc2ncc[nH]2)c1", "note": "[2-[2-(2,5-dimethylphenyl)-ethyl]-imidazole]", "values": [{"measurement": "LD50", "setting": "[1]", "value": 30, "unit": "mg/kg"}, {"measurement": "maximal decrease of the blood pressure", "setting": "Sprague-Dawley rats [2]; obtained with a dose of 10 mg/kg i.v.", "value": 37, "unit": "%"}]}
{"molecule": "Cc1cccc(C)c1C=Cc1ncc[nH]1", "note": "[2-[2-(2,6-dimethylphenyl)-ethenyl]-imidazole]", "values": [{"measurement": "LD50", "setting": "[1]", "value": 40, "unit": "mg/kg"}, {"measurement": "lowers the blood pressure by", "setting": "Sprague-Dawley rats [2]; dose 3 mg/kg i.v. in rats", "value": 17, "unit": "per cent"}, {"measurement": "pulse frequency", "setting": "Sprague-Dawley rats [2]; dose not stated", "value": "no effect"}]}
{"molecule": "Cc1c[nH]c(CCc2c(C)cccc2C)n1", "note": "[2-[2-(2,6-dimethylphenyl)-ethyl]-4-methyl-imidazole]", "values": [{"measurement": "LD50", "setting": "[1]", "value": 25, "unit": "mg/kg"}, {"measurement": "lowered the blood pressure by", "setting": "Sprague-Dawley rats [2]; dosage 300 µg/kg i.v.", "value": 45, "unit": "%"}]}
{"molecule": "Cc1cccc(C)c1CCc1ncc[nH]1", "note": "[2-[2-(2,6-dimethylphenyl)-ethyl]-imidazole]", "values": [{"measurement": "blood pressure lowered by i.c.v. dosage with smaller amounts (than i.v.)", "setting": "Sprague-Dawley rats [3]", "value": 10, "unit": "x"}, {"measurement": "LD50", "setting": "[1]", "value": 20, "unit": "mg/kg"}, {"measurement": "pulse frequency", "setting": "Sprague-Dawley rats [2]; at high dosages", "value": "slight decrease"}, {"measurement": "effect on blood pressure", "setting": "Sprague-Dawley rats [2]; dose 300 µg/kg i.v.", "value": "lowered blood pressure of long duration"}, {"measurement": "decrease of the blood pressure", "setting": "Sprague-Dawley rats [2]; dose 3 mg/kg i.v., rats", "value": 30, "unit": "%"}, {"measurement": "effect on blood pressure", "setting": "Sprague-Dawley rats [2]; dose 30 and 100 µg/kg i.v. in rats", "value": "lowered the blood pressure for a shorter time"}, {"measurement": "effect on blood pressure", "setting": "Sprague-Dawley rats [2]; doses of 30 mg/kg i.v.", "value": "did not elevate the blood pressure"}, {"measurement": "inhibition of ADP-induced aggregation of thrombocytes", "setting": "thrombocytes from a cow", "value": "effectively"}, {"measurement": "inhibition of collagen-induced aggregation of thrombocytes", "setting": "thrombocytes from a cow", "value": "effectively"}]}
{"molecule": "Cc1cccc(C)c1CCC1=NCCN1", "note": "[2-[2-(2,6-dimethylphenyl)-ethyl]-imidazoline]", "values": [{"measurement": "LD50", "setting": "[1]", "value": 25, "unit": "mg/kg"}, {"measurement": "lowers the blood pressure by", "setting": "Sprague-Dawley rats [2]; dose 1-3 mg/kg in rats", "value": 20, "unit": "%"}]}
{"molecule": "Cc1cccc(C)c1CC(O)c1ncc[nH]1", "note": "(stereo not drawn) [2-[2-(2,6-dimethylphenyl)-l-hydroxyethyl]-imidazole]", "values": [{"measurement": "LD50", "setting": "[1]", "value": 60, "unit": "mg/kg"}, {"measurement": "effect on blood pressure", "setting": "Sprague-Dawley rats [2]; dose 10 mg/kg", "value": "lowers the blood pressure for a longer period"}, {"measurement": "effect on blood pressure", "setting": "Sprague-Dawley rats [2]; dose 1 and 3 mg/kg i.v.", "value": "lowering of the blood pressure of short duration"}, {"measurement": "pulse frequency", "setting": "Sprague-Dawley rats [2]; dose not stated", "value": "very slightly influenced"}]}
{"molecule": "Cc1ccc(CC(O)c2ncc[nH]2)cc1C", "note": "(centres unmarked) [2-[2-(3,4-dimethylphenyl)-1-hydroxyethyl]-imidazole]", "values": [{"measurement": "LD50", "setting": "[1]", "value": 50, "unit": "mg/kg"}, {"measurement": "maximal decrease of the blood pressure", "setting": "Sprague-Dawley rats [2]; [4]", "value": 17, "unit": "%"}]}
{"molecule": "Cc1ccc(CCc2ncc[nH]2)cc1C", "note": "[2-[2-(3,4-dimethylphenyl)-ethyl]-imidazole]", "values": [{"measurement": "LD50", "setting": "[1]", "value": 40, "unit": "mg/kg"}, {"measurement": "lowered the blood pressure by", "setting": "Sprague-Dawley rats [2]; dose 10 mg/kg", "value": 20, "unit": "%"}]}
